Data published in patent publication US20240299334A1, “PHARMACEUTICAL COMPOSITION OF NAPHTHALENE DERIVATIVES AS MULTI-TARGETED THERAPEUTIC AGENTS FOR THE TREATMENT OF ALZHEIMER'S DISEASE” (CENTRO DE NEUROCIENCIAS DE CUBA, CNEURO, priority 2020, published 2024).

What was measured:
[1] = system: mitochondria isolated from rat liver; test: Mitochondrial swelling induced by Ca2+ and Pi (absorbance 540 nm); assay type: biochemical; conditions: induced by 50 μmol/L Ca2+ and 2 mmol/L Pi; similar concentrations (0.1-100 μmol/L)
From the text: In this case, it was observed that in the control group (in the presence of Ca^2+) the maximum absorbance values are shown, as a measure of maximum swelling. […] These effects correspond to the observed effects on the dissipation of the mitochondria membrane potential.
Isolation of rat mitochondria: Mitochondria were isolated by the classical method of differential centrifugation from the liver of male Wistar rats (Mirandola S R, et al., in J Neurosci Res 2010; 88: 630-39). […]
(§1) Mitochondrial membrane potential and ROS were determined by spectrophotometry, using as fluorescent probes, respectively, safranin (10 μmol/L) (Zanotti A., and Azzone G F in Archives of Biochemistry and Biophysics 1980, 201 (1), 255-265) and Amplex Red (Molecular Probes, OR, Eugene) in the presence of horseradish peroxidase (1 IU/mL) (Votyakova and Reynolds, in J Neurochem. 2001, 79 (2), 266-77). Measurements were made in a Hitachi fluorescence spectrophotometer, model F-4500 (Tokyo, Japan) at λexc 495/λem 586 nm (safranin) and at λexc 563/λem 587 nm (Amplex Red). […]
Data analysis: In all cases, the normal distribution and homogeneity of variances of the data were evaluated using the Kolmogorov Smirnov and Levene tests, respectively. […]

[2] = system: mitochondria isolated from rat liver; test: Production of H2O2 / reactive oxygen species (Amplex Red) in isolated mitochondria; assay type: biochemical; conditions: dose range tested (0.1-100 μmol/L)
Procedure: Isolation of rat mitochondria: Mitochondria were isolated by the classical method of differential centrifugation from the liver of male Wistar rats (Mirandola S R, et al., in J Neurosci Res 2010; 88: 630-39).
Incubation procedures: Mitochondria were energized with 5 mmol/L potassium succinate (plus 2.5 μmol/L rotenone) in standard incubation medium containing 125 mmol/L sucrose, 65 mmol/L KCl and 10 mmol/L of HEPES-KOH, pH 7.4, at 30° C.
as §1, with “Red). These experiments were carried out in the presence of 0.1 mmol/L of EGTA and the evaluated compound was N-[4-(1-naphthylamino)-4-oxobutanoyl]-β-alanine (1) in a concentration range of 0.1 to 100 μmol/L. Mitochondrial swelling was estimated spectrophotometrically from the decrease in absorbance at 540 nm, using a Hitachi spectrophotometer, Model U-2910 (Japan).” for “Red).”

[3] = system: memory loss induced by an acute administration of scopolamine (ESC); test: Y-maze, short-term spatial memory, acute scopolamine (ESC) model; assay type: in vivo, mice
Procedure: Young male OF-1 mice (20-25 g), supplied by the National Center for the Laboratory Animals Production (CENPALAB, Cuba), were used. Before the experiment, the animals were adapted for seven days to laboratory conditions (controlled temperature 25±2° C., relative humidity 60±10% and light/dark cycles of 12 h). During this period, and during the experiment, the animals received ad libitum water and a standard diet for rodents supplied by CENPALAB. All procedures were carried out in accordance with the European Commission guidelines for the use and care of laboratory animals and approved by the Committee for the Care of Research Animals. The minimum number of animals and duration of observations required to obtain consistent data was used.
At the end of the adaptation period, the animals were randomly distributed according to their body weights in 5 experimental groups of 12 animals per group. Scopolamine hydrobromohydrate (ESC, Sigma Aldrich) was used to induce cognitive deficit, which was dissolved in physiological saline and administered intraperitoneally (ip) at a dose of 1.5 mg/kg, 30 minutes before the test (Miranda H F et al. in. J. Biomed. Sci., 2014 21 (1): 62-62). The doses of compound 3 used were 0.1, 1, 10 and 20 mg/kg of body weight. The compound was formulated using carboxymethyl cellulose (CMC). The administration scheme was designed as follows:
Group 1 (negative control) with normal cognitive function. Two administrations with an interval of 30 minutes with vehicle (5% CMC) by oral route and saline solution by i.p. route, respectively.
Group 2 (positive control) with cognitive dysfunction. Two administrations with an interval of 30 minutes, the first with vehicle (5% CMC), the second with ESC 1 mg/kg.
Group 3, 4, 5 and 6 treated with 3 (0.1, 1, 10 and 20 mg/kg). Two administrations with an interval of 30 minutes, the first with 3 at the dose corresponding to each group, the second with ESC 1 mg/kg. The behavioral evaluation was carried out 30 minutes after this second administration.
The study of short-term spatial memory was carried out through the study of novel spatial preference, using the Y-maze behavioral paradigm (40 cm long×9 cm wide×16 cm high) with extra-labyrinthine tracks around of the maze. The test consisted of two trials separated by an interval of 2 hours. In the first training test (acquisition), the mice were placed in the center of the maze and facing the end of one of the arms whose selection was random. After being positioned, they were allowed to explore the maze for 10 minutes with one of the arms closed (novel arm). At the end of this test, the mice were returned to their original cage until the second test (recovery), during which they could freely explore the three arms of the maze for 5 minutes. The total residence time (exploration) in each arm was measured and analyzed from video recordings. The entrance to the arm was defined as the entrance of the four legs of the animal in said arm. The residence time (sec) in each arm during the recovery test of the learned task was used for the statistical analysis. The maze was cleaned with 70% ethanol between runs. All mice were transported to the behavioral testing room in their home cages at least 1 day prior to testing. The experiments were carried out between 8:00 am and 12:30 pm.
All data are expressed as the mean±standard error of the mean (SEM). The Morris water maze data was analyzed in two ways. Escape latencies in the visible platform training phase were analyzed using a two-factor ANOVA (treatment×trial). For the study of long-term memory, the last escape latency value of the training phase with the visible platform (D1 V4) and the first value of the test with the hidden platform performed 24 h later (D2T1) were used. Mice with intact long-term memory capacity should quickly reach the hidden platform in the first test. A scoring system was generated with the difference D2T1−D1 V4 and with the ratio D2T1/D1V4. […]

O=C(O)CCNC(=O)CCC(=O)Nc1cccc2ccccc12 [compound 1, N-[4-(1-naphthylamino)-4-oxobutanoyl]-β-alanine]
mitochondrial swelling (absorbance at 540 nm) [1]: reverses the effect of Ca^2+-induced swelling
production of hydrogen peroxide (H2O2) [2]: protects against H2O2 production

CN1[C@@H]2C[C@@H](OC(=O)[C@H](CO)c3ccccc3)C[C@H]1[C@@H]1O[C@@H]12 [ESC, Scopolamine hydrobromohydrate, reference compound]
residence time in the novel arm ([3]; ESC group (control group 133.8±9.3 sec), p<0.001): 98.8 ± 4.2 s

COc1cc2c(cc1OC)C(=O)C(CC1CCN(Cc3ccccc3)CC1)C2 (centres unmarked) [donepezil, reference compound]
deficit induced by ESC in Y-maze ([3]; donepezil 1 mg/kg, ip, 30 minutes before the test): also reversed the deficit induced by ESC
residence time in the novel arm ([3]; donepezil group vs ESC): significantly longer than that of ESC
